For 32 compounds, IC50 results are on record in patent publication US20130225591A1, “IMIDOTHIAZOLE KINASE INHIBITORS” (priority 2009, published 2013).

In the first experiment the target is T1, CDK5-p25 kinase (Homo sapiens, UniProt Q00535).
T1 construct: purchased Invitrogen PV4677
T1 sequence (Q00535 whole entry): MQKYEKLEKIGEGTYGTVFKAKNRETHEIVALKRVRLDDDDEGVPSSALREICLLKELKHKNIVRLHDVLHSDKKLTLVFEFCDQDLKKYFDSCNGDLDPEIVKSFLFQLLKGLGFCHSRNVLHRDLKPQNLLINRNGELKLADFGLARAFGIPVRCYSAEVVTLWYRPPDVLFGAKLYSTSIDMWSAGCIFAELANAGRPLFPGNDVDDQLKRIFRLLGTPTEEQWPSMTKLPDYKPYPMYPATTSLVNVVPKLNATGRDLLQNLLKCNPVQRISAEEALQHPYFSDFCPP
T1 sequence (Q15078 99-307 partner limits assumed): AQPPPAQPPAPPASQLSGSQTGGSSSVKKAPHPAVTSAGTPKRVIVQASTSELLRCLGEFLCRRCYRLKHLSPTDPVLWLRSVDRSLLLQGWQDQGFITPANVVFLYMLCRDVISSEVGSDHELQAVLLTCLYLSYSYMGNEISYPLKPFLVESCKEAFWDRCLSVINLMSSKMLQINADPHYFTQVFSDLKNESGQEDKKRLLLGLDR
Kind of experiment: CDK5-p25 kinase enzymatic assay. The note with it: 50 nM-99 nM; 5 uM ATP, 0.3 nM CDK5-p25; read-out: IC50 potency, CDK5-p25 kinase enzymatic assay, 50 nM-99 nM. In kind it is biochemical. How it is done: CDK5-p25 kinase (Invitrogen PV4677) enzymatic activity was measured using electrophoretic separation and fluorescent detection to monitor phosphorylation of a fluorescently labeled histone H1-derived peptide substrate, FL29 (5-FAM-GGGPATPKKAKKL-CONH2, Caliper #760429)
First, 0.25 uL of serially diluted compound in DMSO at 100× concentration was transferred into each well of a 384-well polystyrene assay plate. To this was added 15 uL of a 1.67× enzyme solution (500 pM enzyme, 1 mM DTT (Sigma D9779), 1× reconstitution buffer with protease inhibitor (Caliper #700329 proprietary formulation)), followed by centrifugation for 1 min at 1000 rpm, and incubation for 5-15 min at room temperature to allow binding of compound to enzyme. To initiate the reaction, 10 uL of substrate/ATP mix (245 mM Hepes pH 7.5, 0.003% Brij 35, 0.004% Tween, 12.75 uM ATP, 3.75 uM FL29 peptide) were added to each well, followed by centrifugation at 1000 rpm for 1 min. The reaction was then incubated at room temperature for 30 min. Final assay conditions were: 0.3 nM CDK5-p25, 1.5 uM peptide, 5 uM ATP, 0.6 mM DTT, 1% DMSO, 98 mM HEPES pH 7.5.
After incubation, reactions were quenched by the addition of 45 uL Caliper termination solution (Caliper proprietary formula), followed by centrifugation at 1000 rpm for 1 min. Extent of reaction (percentage conversion of substrate to phosphorylated product) was then measured using the Caliper EZ II reader. Dose-response curves were created by plotting the inhibition of enzyme activity (normalized relative to vehicle treated and no ATP control reactions) as a function of the log of compound concentration. The curve was analyzed using a four parameter logistical fit to calculate IC50 values.
Turning to `CN(C)c1ccc(CC(=O)Nc2ncn3c(C(F)(F)F)csc23)cc1` [Example 31, 2-[4-(dimethylamino)phenyl]-N-[3-(trifluoromethyl)imidazo[5,1-b][1,3]thiazol-7-yl]acetamide], the IC50 (in general, the point on the concentration scale where inhibition reaches its midpoint) fell in the range of 50 to 99 nM.

Turning to `Nc1ncc(-c2ccc(CC(=O)Nc3ncn4c(C(F)(F)F)csc34)cc2)cn1` [Example 35, 2-[4-(2-aminopyrimidin-5-yl)phenyl]-N-[3-(trifluoromethyl)imidazo[5,1-b][1,3]thiazol-7-yl]acetamide], the IC50 lay within 50 to 99 nM.

Regarding `C[C@H](C(=O)Nc1ncn2c(C(F)(F)F)csc12)c1ccc2ccccc2c1` [Example 36, (2S)-2-(2-naphthyl)-N-[3-(trifluoromethyl)imidazo[5,1-b][1,3]thiazol-7-yl]propanamide], the IC50 lay within 50 to 99 nM.

For the compound `CC(C(=O)Nc1ncn2c(C(F)(F)F)csc12)c1ccc2ncccc2c1` (centres unmarked) [Example 39, 2-quinolin-6-yl-N-[3-(trifluoromethyl)imidazo[5,1-b][1,3]thiazol-7-yl]propanamide], the IC50 was 50 to 99 nM.

In the case of `O=C(Cc1ccc2ccccc2c1)Nc1ncn2c(C(F)F)csc12` [Example 41, N-[3-(difluoromethyl)imidazo[5,1-b][1,3]thiazol-7-yl]-2-(2-naphthyl) acetamide], the IC50 fell in the range of 50 to 99 nM.

Regarding `O=C(Nc1ncn2c(C(F)(F)F)csc12)C(Cl)c1ccc2ccccc2c1` (centres unmarked) [Example 42, 2-chloro-2-(2-naphthyl)-N-[3-(trifluoromethyl)imidazo[5,1-b][1,3]thiazol-7-yl]acetamide], the IC50 fell in the range of 50 to 99 nM.

For `Nc1cc(Nc2cccc(CC(=O)Nc3ncn4c(C(F)(F)F)csc34)c2)ccn1` [Example 49, 2-{3-[(2-aminopyridin-4-yl)amino]phenyl}-N-[3-(trifluoromethyl)imidazo[5,1-b][1,3]thiazol-7-yl]acetamide], the IC50 was 50 to 99 nM.

In the case of `O=C(Cc1c[nH]c2ccccc12)Nc1ncn2c(C(F)(F)F)csc12` [Example 57, 2-(1H-indol-3-yl)-N-[3-(trifluoromethyl)imidazo[5,1-b][1,3]thiazol-7-yl]acetamide], the half-maximal inhibitory concentration (IC50) fell in the range of 50 to 99 nM.

Take `O=C(Cc1cccc(NC(=O)c2cccnc2)c1)Nc1ncn2c(C(F)(F)F)csc12` [Example 59, N-[3-(2-oxo-2-{[3-(trifluoromethyl)imidazo[5,1-b][1,3]thiazol-7-yl]amino}ethyl)phenyl] nicotinamide]: the IC50 fell in the range of 50 to 99 nM.

Regarding `O=C(Cc1cccc(NC(=O)c2ccncc2)c1)Nc1ncn2c(C(F)(F)F)csc12` [Example 60, N-[3-(2-oxo-2-{[3-(trifluoromethyl)imidazo[5,1-b][1,3]thiazol-7-yl]amino}ethyl)phenyl] isonicotinamide], the IC50 lay in the range of 50 to 99 nM.

On to `O=C(Cc1ccc(NC(=O)c2cccnc2)cc1)Nc1ncn2c(C(F)(F)F)csc12` [Example 61, N-[4-(2-oxo-2-{[3-(trifluoromethyl)imidazo[5,1-b][1,3]thiazol-7-yl]amino}ethyl)phenyl] nicotinamide], for which the IC50 lay within 50 to 99 nM.

As to `Nc1ccccc1-c1ccc(CC(=O)Nc2ncn3c(C(F)(F)F)csc23)cn1` [Example 63, 2-[6-(2-aminophenyl)pyridin-3-yl]-N-[3-(trifluoromethyl)imidazo[5,1-b][1,3]thiazol-7-yl]acetamide], the IC50 lay within 50 to 99 nM.

The same experiment, now with this note: 500 nM-3 μM; 5 uM ATP, 0.3 nM CDK5-p25; read-out: IC50 potency, CDK5-p25 kinase enzymatic assay, 500 nM-3 μM.
For `O=C(Cc1ccc2ccccc2c1)Nc1ncn2c(C3CC3)csc12` [Example 38, N-(3-cyclopropyl-imidazo[5,1-b][1,3]thiazol-7-yl)-2-(2-naphthyl) acetamide], the IC50 was in the range of 500 to 3000 nM.

`C[C@@H](C(=O)Nc1ncn2c(C(F)(F)F)csc12)c1ccc2ncccc2c1` [Example 47, (2R)-2-quinolin-6-yl-N-[3-(trifluoromethyl)imidazo[5,1-b][1,3]thiazol-7-yl]propanamide]: the IC50 was in the range of 500 to 3000 nM.

The same experiment, now with this note: 5 uM ATP, 0.3 nM CDK5-p25; read-out: IC50 potency, CDK5-p25 kinase enzymatic assay, 100 nM-499 nM.
`O=C(Cc1cncnc1)Nc1ncn2c(C(F)(F)F)csc12` [Example 32, 2-pyrimidin-5-yl-N-[3-(trifluoromethyl)imidazo[5,1-b][1,3]thiazol-7-yl]acetamide]: the IC50 was 100 to 499 nM.

For the compound `CC(C(=O)Nc1ncn2c(C(F)(F)F)csc12)c1ccc2ccccc2c1` (centres unmarked) [Example 34, 2-(2-naphthyl)-N-[3-(trifluoromethyl)imidazo[5,1-b][1,3]thiazol-7-yl]propanamide], the IC50 lay within 100 to 499 nM.

`O=C(Nc1ncn2c(C(F)(F)F)csc12)C(O)c1ccc2ccccc2c1` (centres unmarked) [Example 40, 2-hydroxy-2-(2-naphthyl)-N-[3-(trifluoromethyl)imidazo[5,1-b][1,3]thiazol-7-yl]acetamide]: the IC50 was in the range of 100 to 499 nM.

As for `Cc1cnc(-c2ccc(CC(=O)Nc3ncn4c(C(F)(F)F)csc34)cc2)cn1` [Example 51, 2-[4-(5-methylpyrazin-2-yl)phenyl]-N-[3-(trifluoromethyl)imidazo[5,1-b][1,3]thiazol-7-yl]acetamide], the IC50 was 100 to 499 nM.

Consider `CS(=O)(=O)c1ccc(CC(=O)Nc2ncn3c(C(F)(F)F)csc23)cc1` [Example 58, 2-[4-(methylsulfonyl)phenyl]-N-[3-(trifluoromethyl)imidazo[5,1-b][1,3]thiazol-7-yl]acetamide], for which the IC50 fell in the range of 100 to 499 nM.

The same experiment, now with this note: '<50 nM'; 5 uM ATP, 0.3 nM CDK5-p25; read-out: IC50 potency, CDK5-p25 kinase enzymatic assay, <50 nM.
With `O=C(Nc1ncn2c(C(F)(F)F)csc12)C(F)c1ccc2ccccc2c1` (centres unmarked) [Example 33, 2-fluoro-2-(2-naphthyl)-N-[3-(trifluoromethyl)imidazo[5,1-b][1,3]thiazol-7-yl]acetamide], the IC50 was below 50 nM.

With `O=C(Cc1ccc2[nH]ncc2c1)Nc1ncn2c(C(F)(F)F)csc12` [Example 37, 2-(1H-indazol-5-yl)-N-[3-(trifluoromethyl)imidazo[5,1-b][1,3]thiazol-7-yl]acetamide], the IC50 was below 50 nM.

In the case of `O=C(Cc1ccc(Cl)cc1)Nc1ncn2c(C(F)(F)F)csc12` [Example 43, 2-(4-chlorophenyl)-N-[3-(trifluoromethyl)imidazo[5,1-b][1,3]thiazol-7-yl]acetamide], the IC50 is below 50 nM.

Consider `C[C@H](C(=O)Nc1ncn2c(C(F)(F)F)csc12)c1ccc2ncccc2c1` [Example 46, (2S)-2-quinolin-6-yl-N-[3-(trifluoromethyl)imidazo[5,1-b][1,3]thiazol-7-yl]propanamide], for which the IC50 was below 50 nM.

With `O=C(Cc1cccc(-c2cc[nH]n2)c1)Nc1ncn2c(C(F)(F)F)csc12` [Example 48, 2-[3-(1H-pyrazol-3-yl)phenyl]-N-[3-(trifluoromethyl)imidazo[5,1-b][1,3]thiazol-7-yl]acetamide], the IC50 was below 50 nM.

With `O=C(Cc1ccc(-c2ccccc2)nc1)Nc1ncn2c(C(F)(F)F)csc12` [Example 50, 2-(6-phenylpyridin-3-yl)-N-[3-(trifluoromethyl)imidazo[5,1-b][1,3]thiazol-7-yl]acetamide], the concentration for half-maximal inhibition (IC50) was below 50 nM.

On to `O=C(Cc1cccc(-c2cccnc2)c1)Nc1ncn2c(C(F)(F)F)csc12` [Example 52, 2-(3-pyridin-3-ylphenyl)-N-[3-(trifluoromethyl)imidazo[5,1-b][1,3]thiazol-7-yl]acetamide], for which the IC50 was below 50 nM.

As for `O=C(Cc1ccc(-c2ccsc2)cc1)Nc1ncn2c(C(F)(F)F)csc12` [Example 53, 2-[4-(3-thienyl)phenyl]-N-[3-(trifluoromethyl)imidazo[5,1-b][1,3]thiazol-7-yl]acetamide], the IC50 is below 50 nM.

As for `O=C(Cc1ccc(-c2ccccn2)cc1)Nc1ncn2c(C(F)(F)F)csc12` [Example 54, 2-(4-pyridin-2-ylphenyl)-N-[3-(trifluoromethyl)imidazo[5,1-b][1,3]thiazol-7-yl]acetamide], the IC50 was below 50 nM.

Turning to `Cc1ccc(-c2ccc(CC(=O)Nc3ncn4c(C(F)(F)F)csc34)cc2)cn1` [Example 55, 2-[4-(6-methylpyridin-3-yl)phenyl]-N-[3-(trifluoromethyl)imidazo[5,1-b][1,3]thiazol-7-yl]acetamide], the IC50 was below 50 nM.

On to `O=C(Cc1cccc(-c2ccccn2)c1)Nc1ncn2c(C(F)(F)F)csc12` [Example 56, 2-(3-pyridin-2-ylphenyl)-N-[3-(trifluoromethyl)imidazo[5,1-b][1,3]thiazol-7-yl]acetamide], for which the IC50 is below 50 nM.

On to `O=C(Cc1ccc(NC(=O)c2ccncc2)cc1)Nc1ncn2c(C(F)(F)F)csc12` [Example 62, N-[4-(2-oxo-2-{[3-(trifluoromethyl)imidazo[5,1-b][1,3]thiazol-7-yl]amino}ethyl)phenyl] isonicotinamide], for which the IC50 was below 50 nM.

For the compound `O=C(Cc1cccc(-c2ccncc2)c1)Nc1ncn2c(C(F)(F)F)csc12` [Example 64, 2-(3-pyridin-4-ylphenyl)-N-[3-(trifluoromethyl)imidazo[5,1-b][1,3]thiazol-7-yl]acetamide], the IC50 is below 50 nM.
